According to ChEMBL document CHEMBL1154198, “Chemical genetics of Plasmodium falciparum” (Nature, 2010):

Experiments:
Plasmodium falciparum [1] = assay: ST_JUDE: Plasmodium falciparum 3D7 EC50 (uM) as measured by SYBR green dye; format: functional, organism-based
Plasmodium falciparum [2] = assay: ST_JUDE: Plasmodium falciparum K1 EC50 (uM) as measured by SYBR green dye; format: functional, organism-based

SMILES | EC50 (Plasmodium falciparum [1]) [µM] | EC50 (Plasmodium falciparum [2]) [µM]
O=C(Nc1cccc(C(F)(F)F)c1)c1cc2ccccc2oc1=O | > 15 | > 15
CC(=O)Nc1ccc(S(=O)(=O)Nc2ccc(Nc3nc(C)cc(N(C)C)n3)cc2)cc1 | 1.95 | 6.27
COc1ccccc1C1CC(c2ccccc2)=NN1C(=O)c1ccccc1 (stereo unspecified) | 0.855 | 4.32
Cc1ccc(Nc2nc(NCc3ccccc3)c3ccccc3n2)cc1 | 0.754 | 3.6
CCCC(=O)NC(c1cccc([N+](=O)[O-])c1)c1ccc2cccnc2c1O (stereo unspecified) | 2.88 | 2.48
Oc1ccccc1/C=N\c1ccc(-c2nc3cc(-c4ccc5[nH]c(-c6ccc(/N=C\c7ccccc7O)cc6)nc5c4)ccc3[nH]2)cc1 | 0.207 | 0.151
CCC1(C)CC(CCNCc2ccc(F)cc2)(c2ccc(C)cc2)CCO1 (stereo unspecified) | 1.11 | 0.974
O=C(O)/C=C1\SC(=O)NC1=O | > 15 | > 15
Cc1ccc(C)c(C(C)NC(=S)Nc2ccc([N+](=O)[O-])cc2)c1 (stereo unspecified) | > 15 | 3.36
CCc1cccc(NC(=O)C2c3ccccc3C(=O)N(C3CCCC3)C2c2cccs2)c1 (stereo unspecified) | 2.29 | 2.01
CCOC(=O)C1=C(c2ccccc2)N=C(S)NC1c1cc(Cl)ccc1OC (stereo unspecified) | > 15 | > 15
CN1c2ccccc2N(C)C1c1ccc(Sc2ccc(C3N(C)c4ccccc4N3C)o2)o1 | > 15 | 1.65
CC(=O)c1c(C(C)=O)c(C)n(Cc2ccc(Cl)cc2)c1C | > 15 | 6.63
COc1cc(SC)ccc1C(=O)N1CCCC(C)C1 (stereo unspecified) | 9.81 | > 15
CCN(CC)CCn1c(=N)n(CCOc2ccc(Cl)cc2Cl)c2ccccc21 | > 15 | 7.48
CCN(CC)c1cc(C)c2cc(NC(=O)c3ccc(F)cc3)ccc2n1 | > 15 | > 15
CCCCCCc1cc(O)c2c(C)cc(=O)oc2c1 | > 15 | 4.15
CSc1nc(N)c2c(n1)N=C1CC(C)(C)CC(O)=C1C2c1cccs1 (stereo unspecified) | > 15 | > 15
COc1cccc(Nc2nc(N3CCN(CCO)CC3)nc3c2cnn3-c2ccccc2)c1 | 3.31 | 4.71
Cc1ccc(CN2CCN(Cc3c(C)nn(C)c3Cl)CC2CCO)cc1 (stereo unspecified) | > 15 | > 15
Cc1nc2ccc(OCC(C)C)cc2c(O)c1CN(C)C1CCN(C)CC1 | > 15 | > 15
N#Cc1cccc(NC(=O)C2c3ccccc3C(=O)N(C3CCCC3)C2c2cccs2)c1 (stereo unspecified) | 0.188 | 0.253

SMILES | EC50 (Plasmodium falciparum [1]) [µM] | EC50 (Plasmodium falciparum [2]) [µM]
COc1cc(CNc2cc(Cl)ccc2C)cc(I)c1OC | > 15 | 3.17
Cc1cccc(NC(c2ccc(F)cc2)c2ccc3cccnc3c2O)n1 (stereo unspecified) | 1.51 | 4.17
CCOc1ccccc1/C=C/C(=O)Nc1ccc2nc(N3CCN(C)CC3)cc(C)c2c1 | 0.437 | > 15
O=C(CCc1ccccc1)N(Cc1cccnc1)c1nc2ccc(F)cc2s1 | > 15 | > 15
Cc1cc(C)c(C)c(OCCCCCCN2CCCC2)c1 | > 15 | > 15
COC(=O)C1C(=O)C2=C(CC1C)NC(=O)CC2c1ccc([N+](=O)[O-])cc1 (stereo unspecified) | 3.01 | 1.66
CCO/C(O)=C1\C(CC)=NC2=C(C(=O)CC(C)(C)C2)C1c1ccc(Cl)cc1Cl (stereo unspecified) | 1.33 | 1.22
Cc1ccc(-c2nc(C(=O)N(C)Cc3cccnc3)cs2)cc1F | 4.36 | 5.12
CCOC(=O)c1c(CNCCN(CC)CC)n(C)c2cc(Br)c(O)cc12 | 2.89 | 4.87
CN1CCN(c2ccc(-c3cccc(NC(=O)c4cccc(F)c4)c3)nn2)CC1 | > 15 | > 15
CN(CCO)CCCCOc1ccc2c(c1)C(=O)c1cc(OCCCCN(C)CCO)ccc1-2 | > 15 | 3.64
O=C(Nc1ccccc1O)c1ccc(-c2ccc(Cl)cc2Cl)o1 | 2.46 | > 15
O=C(Nc1ccc(Cl)c(Cl)c1)Nc1ccc(Cl)c([N+](=O)[O-])c1 | > 15 | > 15
O=C(C1CCCCC1)N(Cc1cccnc1)c1nc2c(Cl)cccc2s1 | 2.36 | 2.33
Cc1cccc(-n2ccnc2SCC(=O)Nc2cccc(C(F)(F)F)c2)c1C | 0.836 | 1.81
COc1ccc(C2CC(=O)C3=C(C2)NC(=O)CC3c2ccc(SC)cc2)cc1OC (stereo unspecified) | 3.65 | 4.79
CCc1ccc(Oc2c(C(F)(F)F)oc3c(CN4CCOCC4)c(O)ccc3c2=O)cc1 | > 15 | > 15
Cc1cccc2sc(NNC(=O)c3ccc(S(=O)(=O)N4CCCCC4C)cc3)nc12 (stereo unspecified) | > 15 | > 15
Cc1ccc(Cl)cc1NC(=O)c1c(-c2c(Cl)cccc2Cl)noc1C | 0.481 | 8.12
CCOc1cccc(CNC2CC(C)(C)Cc3c2cnn3-c2ccc(C)cc2)c1O (stereo unspecified) | 3.15 | 0.795
Cc1ccc2sc(NNC(=O)c3ccc(S(=O)(=O)N(C)C)cc3)nc2c1C | > 15 | 3.82
Cc1ccc(/C=N/NC(=O)COc2ccc(Cl)cc2Cl)c(O)c1 | > 15 | > 15

SMILES | EC50 (Plasmodium falciparum [1]) [µM] | EC50 (Plasmodium falciparum [2]) [µM]
CC1CCN(Cc2cc(COCc3ccccc3)c3cccnc3c2O)CC1 | 2.87 | 3.19
COc1ccc(OC)c2sc(N(Cc3cccnc3)C(=O)c3cccc(C)c3)nc12 | > 15 | 2.33
COc1cccc(C2Nc3ccc(C(C)=O)cc3C3C=CCC32)c1OC (stereo unspecified) | 3.42 | 8.22
CCCC(=O)N1CCN(c2ccc(NC(=O)c3cccc(OCC)c3)cc2Cl)CC1 | > 15 | > 15
CCn1c2c(c(=N)c3c1CCC3)CCCC2 | 3.12 | 6.57
Cc1cc(C)nc(/N=C(\N)Nc2ccc(Cl)cc2C(=O)c2ccccc2)n1 | 3.59 | 8.05
CN(C)CCCNCc1ccc2[nH]c3c(c2c1)CCCC3 | 3.4 | > 15
CCOc1cc(/C=N/N=C(N)N)ccc1OCc1ccccc1 | 0.867 | 6.56
O=C(O)c1ccc(NC2=C(n3nnc4ccccc43)C(=O)c3ccccc3C2=O)cc1 | > 15 | 1.49
CCCC(=O)NC(c1ccccc1Cl)c1cc(Cl)c2cccnc2c1O (stereo unspecified) | > 15 | > 15
O=C1CC(c2ccc(Cl)c(Cl)c2)C2=C(CC(c3ccc(F)cc3)CC2=O)N1 (stereo unspecified) | > 15 | 4.38
Oc1ccc(Br)cc1CN1CCN(Cc2ccccc2C(F)(F)F)CC1 | 1.88 | 0.45
COC(=O)c1ccc(NC(=O)CSc2ccc3nnc(-c4ccc(C)cc4)n3n2)cc1 | > 15 | > 15
CCOC(=O)c1cnc2ccc(OC)cc2c1NCCCN1CCOCC1 | 5.94 | 4.38
CCCN1CCN(CCCNC(=S)Nc2ccc3nc(N4CCN(C)CC4)cc(C)c3c2)CC1 | 5.43 | 6.85
CCCCN(C)Cc1c(C)nc2ccc(OCc3ccccc3)cc2c1O | > 15 | > 15
Oc1ccc(Br)cc1CN1CCN(Cc2ccc(Cl)cc2)CC1 | 1.48 | 0.215
CCC1(C)CC(CCNCc2ccc(F)cc2)(c2ccc(F)cc2)CCO1 (stereo unspecified) | 1.15 | 0.518
CC(=O)N(C1=C(NCCO)C(=O)c2ccccc2C1=O)c1cccc(Br)c1 | 0.0171 | 0.0286
O=C(Nc1cccc(Br)c1)C1(c2ccccc2)CC1(Cl)Cl (stereo unspecified) | 4.43 | 3.11
COc1ccc(/C=C/c2cc[n+](C)cc2)cc1 | 3.4 | 3.82
CC(C)(C)c1ccc(-c2nc(-c3ccncc3)no2)cc1 | > 15 | > 15

SMILES | EC50 (Plasmodium falciparum [1]) [µM] | EC50 (Plasmodium falciparum [2]) [µM]
Cc1ccc(C)c(NC(=O)c2c(-c3c(Cl)cccc3Cl)noc2C)c1 | 0.537 | 4.36
CCC(C)c1ccccc1OCC(O)CNC1CCCC1 (stereo unspecified) | 1.73 | 0.959
Cc1ccnc(N2C(=O)c3ccccc3C2Nc2ccccc2C)c1 (stereo unspecified) | > 15 | > 15
Cc1cccc(C2Sc3ccccc3N=C3C2=C(O)c2ccccc23)c1 (stereo unspecified) | 1.89 | 1.77
Cc1cccc(NC(=O)c2cc3ccccc3cc2O)c1 | 1.15 | 0.602
CC(=O)NCC(=O)NC1CC(C)(C)Cc2c1cnn2-c1ccccc1 (stereo unspecified) | > 15 | > 15
COc1ccc(Cl)cc1NC(=O)C1c2ccccc2C(=O)N(CC(C)C)C1c1cccs1 (stereo unspecified) | 0.367 | 0.386
Cc1ccc(N2C(=O)C(Cl)=C(Nc3ccccc3C)C2=O)c(C)c1 | > 15 | > 15
CCc1ccc(CN2CCC(n3nccc3NC(=O)Nc3ccccc3C)CC2)cc1 | 6.75 | > 15
Cc1cc(N(C)C)nc(Nc2ccc(NS(=O)(=O)c3cc(C(C)C)ccc3C)cc2)n1 | 1.55 | 3.35
O=C(Cc1ccc(Cl)cc1)Nc1ccc(-c2nc3ccccc3[nH]2)cc1 | > 15 | > 15
O=C(CSc1nnc(-c2ccncc2)o1)Nc1ccccc1C(F)(F)F | > 15 | > 15
Oc1cccc2ccc[n+](CC(O)Cn3c4ccccc4c4ccccc43)c12 (stereo unspecified) | 1.31 | > 15
Cc1cccc(NC(c2ccc(Cl)cc2)c2ccc3cccnc3c2O)n1 (stereo unspecified) | 3.54 | 3.14
COC(=O)C1=CN(Cc2ccc(C)cc2)C=C(C(=O)OC)C1c1cc(OC)c(OC)c(OC)c1 | 4.49 | 5.49
COc1ccc(C(O)(CCC(C)C)C(CN2CCOCC2)c2ccccc2)cc1 (stereo unspecified) | 3.67 | 3.27
CCCCCC(O)(c1ccccc1)C(CN1CCOCC1)c1ccccc1 (stereo unspecified) | 3.26 | 2.04
CC(=O)N(C1=C(N2CCCCC2)C(=O)c2ccccc2C1=O)c1ccc(C)cc1 | 7.46 | 4.48
CCOC(=O)C1=C(CN(C)c2ccc(F)cc2)NC(=O)NC1c1ccc(F)cc1 (stereo unspecified) | 3.51 | 1.23
CN(C)c1cc[n+](CC(=O)c2ccc(Cl)cc2)cc1 | 2.44 | 1.74
CN1CCN(c2nc(Nc3ccc(O)cc3)nc3ccccc23)CC1 | 2.75 | 6.2
CCC1=[N+](C)c2cccc3cccc(c23)N1C | 5.13 | 4.41
